Laboratory results taken from US12409172B2, “Dosage regimen” (UNION therapeutics A/S, priority 2023, dated 2025).
Marks after values point to notes of the source that are not given here.

Experiments:
[1] = test system: cytokines in psoriatic lesional skin; assay: Skin tape strip biomarkers (Olink Target 96 Inflammation panel) in the phase 2b psoriasis study (Example 10); format: in vivo, human; details: for log2FCH W16_L - BL_L, CCL3 / log2FCH W16_L - BL_L, CCL4 / log2FCH W16_L - BL_L, CCL20 / log2FCH W16_L - BL_L, CSF1 / log2FCH W16_L - BL_L, CXCL1 / log2FCH W16_L - BL_L, CXCL5 / log2FCH W16_L - BL_L, CXCL6 / log2FCH W16_L - BL_L, CXCL9 / log2FCH W16_L - BL_L, CXCL10 / log2FCH W16_L - BL_L, IFNγ / log2FCH W16_L - BL_L, IL8 / log2FCH W16_L - BL_L, IL12B / log2FCH W16_L - BL_L, IL17A / log2FCH W16_L - BL_L, IL18 / log2FCH W16_L - BL_L, IL18R1 / log2FCH W16_L - BL_L, IL. 17C / log2FCH W16_L - BL_L, MMP1 / log2FCH W16_L - BL_L, TNFRSF9 / log2FCH W16_L - BL_L, TNFSF14 / log2FCH W16_L - BL_L, TNFα / log2FCH W16_L - BL_L, TRAIL: Week 16 lesional vs baseline lesional skin
Text: Skin tape strip samples were taken from lesional and non-lesional skin at baseline and lesional skin at week 16 of patients participating in the phase 2b, dose-ranging study assessing oral modified release orismilast in adults with moderate-to-severe plaque psoriasis (NCT05190419) described in Example 3. Approximately twenty consecutive stratum corneum samples were collected from the same skin site by tape stripping (D-squames; Monaderm DS100) of both lesional and non-lesional skin at baseline and lesional skin at week 16. To extract the proteins from the tapes the first ten tapes were pooled together and used for subsequent protein extraction by incubation in 800 μL of PBS containing 0.2% Triton X-100 together with a mixture of protease inhibitors and incubated overnight at 4° C. under stirring at 1400 rpm in a thermo mixer (Eppendorf). The insoluble material was removed by filtration on 0.22 μm filters by centrifugation. The protein extracts were analyzed using the Olink® technology (Target 96 Inflammation panel). Protein extracts from patients treated with placebo, 20 mg orismilast BID, and 30 mg orismilast BID as described in Example 3 were analyzed.
OLINK data was analyzed in R 2023.09.0+463 using a linear mixed effect model (OlinkAnalyse and Ime4) to estimate log 2 fold changes between Week 16 lesional skin versus baseline lesional skin and baseline lesional versus baseline non-lesional skin levels. P-values were corrected for multiple testing using the Benjamini-Hochberg method. The data was further modeled according to a weight-based dosing regimen in which data of the 20 mg Orismilast BID arm was used for patients with a bodyweight at baseline of <100 kg and combined with using data of the 30 mg Orismilast BID arm for patients ≥100 kg, respectively (named “P3DR”).

[2] = test system: TNF-α secretion from human whole blood; assay: LPS and SEB-induced TNF-α secretion from human whole blood; format: cell-based; details: average; both LPS and SEB-induced TNF-α secretion from human whole blood
[3] = Chinese healthy volunteer study CIB1353A101: PK; details: human, in vivo, oral; CIBI3S3A101 (D1 = 10 mg); N 18; read-out: AUClast, NCA GM (CV %)
[4] = test system: PDE4B and PDE4D subtype splice variants; details: in vitro; cited from earlier work
[5] = test system: human peripheral blood mononuclear cells PBMC; details: in vitro; cited from earlier work
[6] = test system: chronic oxazolone-induced ear skin inflammation; details: 10 and 30 mg/kg doses; cited from earlier work
[7] = P3DR (20 mg <100 kg and 30 mg >=100 kg combined)

Compound: O=C(Cc1c(Cl)c[n+]([O-])cc1Cl)c1ccc(OC(F)F)c2c1OC1(CCS(=O)(=O)CC1)O2 [orismilast, 2-(3,5-dichloro-1-oxidopyridin-1-ium-4-yl)-1-[7-(difluoromethoxy)-1′,1′-dioxospiro[1,3-benzodioxole-2,4′-thiane]-4-yl]ethanone]
- log2FCH W16_L - BL_L, CCL3 ([1]; 20 mg BID): −2.68 ***
- log2FCH W16_L - BL_L, CCL4 ([1]; 20 mg BID): −2.46 ***
- log2FCH W16_L - BL_L, CCL20 ([1]; 20 mg BID): −2.53 ***
- log2FCH W16_L - BL_L, CSF1 ([1]; 20 mg BID): −1.35 **
- log2FCH W16_L - BL_L, CXCL1 ([1]; 20 mg BID): −1.83 *
- log2FCH W16_L - BL_L, CXCL5 ([1]; 20 mg BID): −1.67 **
- log2FCH W16_L - BL_L, CXCL6 ([1]; 20 mg BID): −2.34 ***
- log2FCH W16_L - BL_L, CXCL9 ([1]; 20 mg BID): −2.40 ***
- log2FCH W16_L - BL_L, CXCL10 ([1]; 20 mg BID): −2.20 ***
- log2FCH W16_L - BL_L, IFNγ ([1]; 20 mg BID): −1.21 *
- log2FCH W16_L - BL_L, IL8 ([1]; 20 mg BID): −1.82 *
- log2FCH W16_L - BL_L, IL12B ([1]; 20 mg BID): −2.21 **
- log2FCH W16_L - BL_L, IL17A ([1]; 20 mg BID): −2.19 ***
- log2FCH W16_L - BL_L, IL18 ([1]; 20 mg BID): −2.10 **
- log2FCH W16_L - BL_L, IL18R1 ([1]; 20 mg BID): −1.25 **
- log2FCH W16_L - BL_L, IL. 17C ([1]; 20 mg BID): −2.49 ***
- log2FCH W16_L - BL_L, MMP1 ([1]; 20 mg BID): −2.41 **
- log2FCH W16_L - BL_L, TNFRSF9 ([1]; 20 mg BID): −1.45 ***
- log2FCH W16_L - BL_L, TNFSF14 ([1]; 20 mg BID): −1.38 *
- log2FCH W16_L - BL_L, TNFα ([1]; 20 mg BID): −1.92 ***
- log2FCH W16_L - BL_L, TRAIL ([1]; 20 mg BID): −1.40 **
- log2FCH W16_L - BL_L, CCL3 ([1]; 30 mg BID): −3.42 ***
- log2FCH W16_L - BL_L, CCL4 ([1]; 30 mg BID): −2.83 ***
- log2FCH W16_L - BL_L, CCL20 ([1]; 30 mg BID): −3.36 ***
- log2FCH W16_L - BL_L, CSF1 ([1]; 30 mg BID): −1.97 ***
- log2FCH W16_L - BL_L, CXCL1 ([1]; 30 mg BID): −2.84 ***
- log2FCH W16_L - BL_L, CXCL5 ([1]; 30 mg BID): −2.26 ***
- log2FCH W16_L - BL_L, CXCL6 ([1]; 30 mg BID): −3.15 ***
- log2FCH W16_L - BL_L, CXCL9 ([1]; 30 mg BID): −3.32 ***
- log2FCH W16_L - BL_L, CXCL10 ([1]; 30 mg BID): −2.89 ***
- log2FCH W16_L - BL_L, IFNγ ([1]; 30 mg BID): −2.02 ***
- log2FCH W16_L - BL_L, IL8 ([1]; 30 mg BID): −2.76 ***
- log2FCH W16_L - BL_L, IL12B ([1]; 30 mg BID): −3.38 ***
- log2FCH W16_L - BL_L, IL17A ([1]; 30 mg BID): −2.66 ***
- log2FCH W16_L - BL_L, IL18 ([1]; 30 mg BID): −3.46 ***
- log2FCH W16_L - BL_L, IL18R1 ([1]; 30 mg BID): −1.99 ***
- log2FCH W16_L - BL_L, IL. 17C ([1]; 30 mg BID): −3.39 ***
- log2FCH W16_L - BL_L, MMP1 ([1]; 30 mg BID): −3.30 ***
- log2FCH W16_L - BL_L, TNFRSF9 ([1]; 30 mg BID): −2.03 ***
- log2FCH W16_L - BL_L, TNFSF14 ([1]; 30 mg BID): −2.23 ***
- log2FCH W16_L - BL_L, TNFα ([1]; 30 mg BID): −2.48 ***
- log2FCH W16_L - BL_L, TRAIL ([1]; 30 mg BID): −2.04 ***
- log2FCH W16_L - BL_L, CCL3 [1, 7]: −3.60 ***
- log2FCH W16_L - BL_L, CCL4 [1, 7]: −3.14 ***
- log2FCH W16_L - BL_L, CCL20 [1, 7]: −3.22 ***
- log2FCH W16_L - BL_L, CSF1 [1, 7]: −1.86 ***
- log2FCH W16_L - BL_L, CXCL1 [1, 7]: −2.34 ***
- log2FCH W16_L - BL_L, CXCL5 [1, 7]: −2.25 ***
- log2FCH W16_L - BL_L, CXCL6 [1, 7]: −3.02 ***
- log2FCH W16_L - BL_L, CXCL9 [1, 7]: −3.24 ***
- log2FCH W16_L - BL_L, CXCL10 [1, 7]: −2.94 ***
- log2FCH W16_L - BL_L, IFNγ [1, 7]: −1.91 ***
- log2FCH W16_L - BL_L, IL8 [1, 7]: −2.42 ***
- log2FCH W16_L - BL_L, IL12B [1, 7]: −3.09 ***
- log2FCH W16_L - BL_L, IL17A [1, 7]: −2.66 ***
- log2FCH W16_L - BL_L, IL18 [1, 7]: −2.96 ***
- log2FCH W16_L - BL_L, IL18R1 [1, 7]: −1.83 ***
- log2FCH W16_L - BL_L, IL. 17C [1, 7]: −3.20 ***
- log2FCH W16_L - BL_L, MMP1 [1, 7]: −3.31 ***
- log2FCH W16_L - BL_L, TNFRSF9 [1, 7]: −1.98 ***
- log2FCH W16_L - BL_L, TNFSF14 [1, 7]: −2.08 ***
- log2FCH W16_L - BL_L, TNFα [1, 7]: −2.50 ***
- log2FCH W16_L - BL_L, TRAIL [1, 7]: −1.91 ***
- expression of key disease driving cytokines in psoriatic lesions ([1]; oral orismilast for 16 weeks, 20 mg BID and 30 mg BID): significantly reduced
- potency relative to apremilast on a molar basis [2]: 23 times
- AUC(0-t) [3]: 0.167 µg·h/mL
- inhibition of PDE4B and PDE4D subtype splice variants [4]: potent inhibitor
- secretion of Th1 (TNFα and IFNγ), Th17 (IL-22 and IL-23) and Th2 (IL-4, IL-5, and IL-13) related cytokines in PBMC [5]: inhibited
- ear thickness and inflammation markers [6]: significantly reduced
